Experimental data as given in patent publication US9771378B2 (Denali Therapeutics, Inc., priority 2014, dated 2017).

Test system: Aβ42 (human neuroglioma H4 cells expressing human wild type APP751)
Experiment: In vitro cell screening assay with sandwich ELISA quantification of Aβ42 peptide
Type: cell-based
Conditions: H4 cells stably expressing human wild type APP751; Pro293 chemically defined medium; compounds 0.003-10 μM; incubated overnight (16-18 h); supernatant Aβ42 by sandwich ELISA; normalized to DMSO and DAPT; read-out: Aβ42 H4 Prot Fre IC50
In short: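 Aβ42 in supernatants was quantified by sandwich ELISA with C-terminal-specific capture and 4G8-HRP detection, absorbance at 450 nm. Stable APP751-expressing human H4 cells received compound at 0.003-10 μM (0.33% DMSO) overnight (16-18 h). IC50 was derived from percent-of-DMSO-control data by nonlinear variable-slope fit.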

| SMILES | IC50 |
| --- | --- |
| Cc1cn(-c2ccc(Nc3ncc4c(n3)N(C)C(C(F)(F)F)CO4)cc2C#N)cn1 (single isomer, unassigned; (-)) [Example 232B, (−)-2-(4-methyl-1H-imidazol-1-yl)-5-((8-methyl-7-(trifluoromethyl)-7,8-dihydro-6H-pyrimido [5,4-b] [1, 4]oxazin-2-yl)amino) benzonitrile] | 17 nM |
| CN1c2nc(Nc3ccc(C#N)cc3)ncc2OCC1c1cc(F)cc(F)c1 (single isomer, unassigned; (-)) [Example 233B, (−)-4-((7-(3,5-difluorophenyl)-8-methyl-7,8-dihydro-6H-pyrimido [5,4-b] [1, 4]oxazin-2-yl)amino) benzonitrile] | > 3000 nM |
| COc1cc(Nc2ncc3c(n2)N(C)C(C(F)(F)F)CO3)ncc1-n1cnc(C)c1 (single isomer, unassigned; (-)) [Example 236B] | 245 nM |
| COc1cc(Nc2ncc3c(n2)N(C)C(c2cc(F)cc(F)c2)CO3)ccc1C#N (single isomer, unassigned; (-)) [Example 237A, (−)-4-((7-(3,5-difluorophenyl)-8-methyl-7,8-dihydro-6H-pyrimido [5,4-b] [1, 4]oxazin-2-yl)amino)-2-methoxybenzonitrile] | > 3000 nM |
| COc1cc(Nc2ncc3c(n2)N(C)C(CC(F)(F)F)CO3)cnc1-n1cnc(C)c1 (single isomer, unassigned; (-)) [Example 238A] | 648 nM |
| COc1cc(Nc2ncc3c(n2)N(C)C(C2CCS(=O)(=O)CC2)CO3)ccc1-n1cnc(C)c1 (single isomer, unassigned; (-)) [Example 239A, (−)-4-(2-((3-methoxy-4-(4-methyl-1H-imidazol-1-yl)phenyl)amino)-8-methyl-7,8-dihydro-6H-pyrimido [5,4-b] [1, 4]oxazin-7-yl) tetrahydro-2H-thiopyran 1,1-dioxide] | 407 nM |
| COc1cc(Nc2ncc3c(n2)N(C)C(C2COC2)CO3)ccc1-n1cnc(C)c1 (single isomer, unassigned; (-)) [Example 241A] | 390 nM |
| COc1cc(Nc2ncc3c(n2)N(C)C(C(F)(F)F)CO3)ccc1-n1cnc(C)n1 (single isomer, unassigned; (-)) [Example 242A] | 78 nM |
| COc1cc(Nc2ncc3c(n2)N(C)C(C2COC2)CO3)cnc1-n1cnc(C)c1 (single isomer, unassigned; (-)) [Example 243B] | 814 nM |
| COc1cc(Nc2ncc3c(n2)N(C)C(c2cc(F)cc(F)c2)CO3)ccc1-n1cnc(C)n1 (single isomer, unassigned; (-)) [Example 244B] | 935 nM |
| COc1cc(Nc2ncc3c(n2)N(C)C(C2(C(F)(F)F)CC2)CO3)ccc1-n1cnc(C)c1 (single isomer, unassigned; (-)) [Example 245A] | 216 nM |
| COc1cc(Nc2ncc3c(n2)N(C)C(C2(C(F)(F)F)CC2)CO3)cnc1-n1cnc(C)c1 (single isomer, unassigned; (-)) [Example 247A] | 252 nM |
| Cc1cn(-c2ccc(Nc3ncc4c(n3)N3CCCC3CO4)cc2F)cn1 (single isomer, unassigned; (-)) [Example 289B] | 157 nM |
| COc1cc(Nc2ncc3c(n2)N2CCCC2CO3)ccc1-n1cnc(C)c1 (single isomer, unassigned; (-)) [Example 290A, (−)-N-(3-methoxy-4-(4-methyl-1H-imidazol-1-yl)phenyl)-6a, 7,8,9-tetrahydro-6H-pyrimido [5,4-b] pyrrolo [1,2-d] [1, 4] oxazin-2-amine] | 71 nM |
| COc1cc(Nc2ncc3c(n2)N2C(=O)CCC2CO3)cnc1-n1cnc(C)c1 (single isomer, unassigned; (-)) [Example 302B, (−)-2-((5-methoxy-6-(4-methyl-1H-imidazol-1-yl)pyridin-3-yl)amino)-6,6a, 7,8-tetrahydro-9H-pyrimido [5,4-b] pyrrolo [1,2-d] [1, 4] oxazin-9-one] | 2900 nM |
| COc1cc(Nc2ncc3c(n2)N2CCC(F)(F)C2CO3)ccc1-n1cnc(C)c1 (single isomer, unassigned; (-)) [Example 304A, (−)-7,7-difluoro-N-(3-methoxy-4-(4-methyl-1H-imidazol-1-yl)phenyl)-6a, 7,8,9-tetrahydro-6H-pyrimido [5,4-b] pyrrolo [1,2-d] [1, 4] oxazin-2-amine] | 274 nM |
| COc1cc(Nc2ncc3c(n2)N2CCC(F)(F)C2CO3)cnc1-n1cnc(C)c1 (single isomer, unassigned; (-)) [Example 305B, (−)-7,7-difluoro-N-(5-methoxy-6-(4-methyl-1H-imidazol-1-yl)pyridin-3-yl)-6a, 7,8,9-tetrahydro-6H-pyrimido [5,4-b] pyrrolo [1,2-d] [1, 4] oxazin-2-amine] | 582 nM |
| COc1cc(Nc2ncc3c(n2)N(C)[C@@H](c2ccccc2)CO3)ccc1-n1cnc(C)c1 [Example 21A, (S)—N-(3-methoxy-4-(4-methyl-1H-imidazol-1-yl)phenyl)-8-methyl-7-phenyl-7,8-dihydro-6H-pyrimido[5,4-b][1,4]oxazin-2-amine] | 22 nM |
| COc1cc(Nc2ncc3c(n2)N(C)[C@@H](c2ccccc2)CO3)ccc1-c1ccnc(C)c1 [Example 21B, (S)—N-(3-methoxy-4-(2-methylpyridin-4-yl)phenyl)-8-methyl-7-phenyl-7,8-dihydro-6H-pyrimido[5,4-b][1,4]oxazin-2-amine] | 40 nM |
| COc1cc(Nc2ncc3c(n2)N(C)[C@H](c2ccccc2)CO3)ccc1-n1cnc(C)c1 [Example 22A, (R)—N-(3-methoxy-4-(4-methyl-1H-imidazol-1-yl)phenyl)-8-methyl-7-phenyl-7,8-dihydro-6H-pyrimido[5,4-b][1,4]oxazin-2-amine] | 87 nM |
| COc1cc(Nc2ncc3c(n2)N(C)[C@H](c2ccccc2)CO3)ccc1-c1ccnc(C)c1 [Example 22B, (R)—N-(3-methoxy-4-(2-methylpyridin-4-yl)phenyl)-8-methyl-7-phenyl-7,8-dihydro-6H-pyrimido[5,4-b][1,4]oxazin-2-amine] | 168 nM |
| COC[C@H]1COc2cnc(Nc3ccc(-n4cnc(C)c4)c(OC)c3)nc2N1C [Example 111] | 120 nM |
| COC[C@H]1COc2cnc(Nc3ccc(-n4cnc(C)c4)c(F)c3)nc2N1C [Example 113] | 331 nM |
| Cc1cn(-c2ccc(Nc3ncc4c(n3)N(C)[C@@H](CO)CO4)cc2F)cn1 [Example 170, (S)-(2-((3-fluoro-4-(4-methyl-1H-imidazol-1-yl)phenyl)amino)-8-methyl-7,8-dihydro-6H-pyrimido [5,4-b] [1, 4]oxazin-7-yl) methanol] | 1240 nM |
| COC[C@@H]1COc2cnc(Nc3ccc(-n4cnc(C)c4)c(OC)c3)nc2N1C [Example 176] | 369 nM |

| SMILES | IC50 |
| --- | --- |
| COc1cc(Nc2ncc3c(n2)N(C)[C@H](CO)CO3)ccc1-n1cnc(C)c1 [Example 177, (R)-(2-((3-methoxy-4-(4-methyl-1H-imidazol-1-yl)phenyl)amino)-8-methyl-7,8-dihydro-6H-pyrimido [5,4-b] [1, 4]oxazin-7-yl) methanol] | 262 nM |
| COc1cc(Nc2ncc3c(n2)N(C)[C@@H](COc2ccccc2)CO3)ccc1-n1cnc(C)c1 [Example 200] | 30 nM |
| COc1cc(Nc2ncc3c(n2)N(C)[C@H](COc2ccccc2)CO3)ccc1-n1cnc(C)c1 [Example 201] | 143 nM |
| COc1cc(Nc2ncc3c(n2)N(C)[C@@H](CC2CC2)CO3)ccc1-n1cnc(C)c1 [Example 217] | 53 nM |
| COc1cc(Nc2ncc3c(n2)N(C)[C@@H](CC2CC2)CO3)cnc1-n1cnc(C)c1 [Example 218] | 39 nM |
| COc1cc(Nc2ncc3c(n2)N(C)[C@@H](C2CC2)CO3)ccc1-n1cnc(C)c1 [Example 224] | 22 nM |
| COc1cc(Nc2ncc3c(n2)N(C)[C@@H](C2CC2)CO3)cnc1-n1cnc(C)c1 [Example 225] | 33 nM |
| COc1cc(Nc2ncc3c(n2)N(C)[C@@H](C2CCC2)CO3)ccc1-n1cnc(C)c1 [Example 227] | 19 nM |
| COc1cc(Nc2ncc3c(n2)N(C)[C@@H](C2CCC2)CO3)cnc1-n1cnc(C)c1 [Example 235] | 17 nM |
| COc1cc(Nc2ncc3c(n2)N(C)[C@@H](C(C)(C)C)CO3)ccc1-n1cnc(C)c1 [Example 240] | 21 nM |
| COc1cc(Nc2ncc3c(n2)N(C)[C@@H](C(C)(C)C)CO3)cnc1-n1cnc(C)c1 [Example 246] | 24 nM |
| COc1cc(Nc2ncc3c(n2)N(C)C(C)(C)CO3)ccc1-n1cnc(C)c1 [Example 254] | 54 nM |
| Cc1cn(-c2ccc(Nc3ncc4c(n3)N(C)C(C)(C)CO4)cc2F)cn1 [Example 255] | 488 nM |
| COc1cc(Nc2ncc3c(n2)N(C)C2(CC2)CO3)ccc1-n1cnc(C)c1 [Example 257] | 49 nM |
| Cc1cn(-c2ccc(Nc3ncc4c(n3)N(C)C3(CC3)CO4)cc2F)cn1 [Example 258] | 324 nM |
| COc1cc(Nc2ncc3c(n2)N(C)C2(CCCC2)CO3)cnc1-n1cnc(C)c1 [Example 259] | 73 nM |
| COc1cc(Nc2ncc3c(n2)N(C)C2(CC2)CO3)cnc1-n1cnc(C)c1 [Example 260] | 213 nM |
| COc1cc(Nc2ncc3c(n2)N(C)C(C)(C)CO3)cnc1-n1cnc(C)c1 [Example 261] | 139 nM |
| Cc1cn(-c2ccc(Nc3ncc4c(n3)N(C)C(C)(C)CO4)nc2)cn1 [Example 262] | > 3000 nM |
| Cc1cn(-c2ccc(Nc3ncc4c(n3)N(C)C3(CCCC3)CO4)nc2)cn1 [Example 263] | > 3000 nM |
| COc1cc(Nc2ncc3c(n2)N(C)C2(CCCC2)CO3)ccc1-c1cnn(C)c1 [Example 264] | 260 nM |
| Cc1cn(-c2ccc(Nc3ncc4c(n3)N(C)C3(CC3)CO4)nc2)cn1 [Example 265] | > 3000 nM |
| COc1cc(Nc2ncc3c(n2)N(C)C2(CCCC2)CO3)cnc1-c1cnn(C)c1 [Example 266] | > 3000 nM |
| COc1cc(Nc2ncc3c(n2)N(C)C(C)(C)CO3)ccc1-c1cnn(C)c1 [Example 267] | 822 nM |
